Data published in US5047412A, “Alkene derivatives” (Imperial Chemical Industries PLC, priority 1985, dated 1991).

How the values were obtained:
[1] = system: rabbit aortal strip (TXA2 antagonism); assay: rabbit aortal strip model (test (a)); assay type: cell-based; details: procedure (a), agonist U46619
Experimental: (a) the rabbit aortal strip model devised by Piper and Vane (Nature, 1969, 223, 29-35) using as agonist a freshly prepared sample of TXA2, generated by addition of arachidonic acid (25 μg) to citrated, platelet rich rabbit plasma (250 μl) and allowing the mixture to aggregate fully over 90 seconds before use; alternatively the TXA2 mimetic agent known as U46619 (described by R. L. Jones et alia, in "Chemistry, Biochemistry and Pharmacological Activity of Prostanoids" edited by S. M. Roberts and F. Scheinmann, at page 211, Pergamon Press, 1979) may be used as the agonist;

[2] = molecular target: T1, blood platelet aggregation (TXA2 antagonism) (Homo sapiens, UniProt P21731); assay: blood platelet aggregation test (test (b)); assay type: cell-based; details: procedure (b), human citrated platelet-rich plasma, U46619
T1 construct: aggregating human, citrated platelet-rich plasma; endogenous in cells; host or cells: human platelets in citrated platelet-rich plasma
T1 sequence (P21731 1-343): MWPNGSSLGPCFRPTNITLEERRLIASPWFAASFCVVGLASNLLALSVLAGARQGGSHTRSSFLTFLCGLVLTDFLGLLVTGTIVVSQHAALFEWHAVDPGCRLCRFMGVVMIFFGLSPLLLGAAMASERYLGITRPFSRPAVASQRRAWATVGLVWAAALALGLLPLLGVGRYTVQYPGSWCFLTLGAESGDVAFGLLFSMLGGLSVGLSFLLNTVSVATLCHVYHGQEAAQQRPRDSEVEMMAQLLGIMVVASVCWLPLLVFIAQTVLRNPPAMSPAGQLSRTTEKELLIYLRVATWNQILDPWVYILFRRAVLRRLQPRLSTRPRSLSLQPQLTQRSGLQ
Source text: (b) a blood platelet aggregation test based on that described by Born (Nature, 1962, 194, 927-929) and involving:
(i) aggregating human, citrated platelet-rich plasma by addition of the TXA2 mimetic agent U46619 so that a dose-response curve is generated;
(ii) generating a dose-response curve for U46619 stimulated platelet aggregation in the presence of increasing amounts of test compound (generally in the range, 10^-5 M to 10^-10 M); and
(iii) calculating a Kb value indicating potency of TXA2 antagonism for the test compound, averaged over several concentrations, from the calculated 50% response value for U46619 aggregation in the presence and absence of test compound; and […]

Question: How did the pA2 [1] turn out when O=C(O)CC/C=C\C[C@@H]1CO[C@H](/C=C/c2ccccc2)O[C@@H]1c1ccccc1O (relative stereo) [Example 1, 4(Z)-6-([2,4,5-cis]-4-o-hydroxyphenyl-2(E)-styryl-1,3-dioxan-5-yl)hexenoicacid] was run?
Answer: The pA2 was 8.9.

Question: What about the Kb [2] of the same compound?
Answer: The Kb was 12 nM.
